Measurements taken from patent publication US20080166323A1, “Activators of Hexosamine Biosynthesis as Inhibitors of Injury Induced by Ischemia or Hermorrhagic Shock” (UAB RESEARCH FOUNDATION, priority 2004, published 2008).

Columns and labels:
UDP-GlcNAc = UDP-GlcNAc pools in isolated hearts; details: 5 mM
Protocol: In the experiments above with isolated hearts, glucosamine was protective after only a ten minute pre-incubation. While not wishing to be bound by theory, the mechanism believed to be responsible for the protection is an increase in concentration of an intracellular metabolite of the HBP, which results in an increase in protein-associated O-GlcNAc. […] Increases at ten minutes were 47%. With respect to the second point, experiments were performed in which a monoclonal antibody specific for O-GlcNAc on proteins (CTD110) (Corner, et al, Anal Biochem (2001) 293(2):169-177) was used in an immunoblotting protocol. The specificity of this antibody for O-GlcNAc-containing epitopes is verified in each experiment by the inclusion of 10 mM GlcNAc along with the CTD110 antibody on parallel samples. These samples show no staining (data not shown). CTD110 immunoblots were performed on extracts from isolated hearts following a ten-minute perfusion with buffer or buffer containing 5 mM glucosamine (FIG. 8). […] Intriguingly, one group of newly appearing proteins has molecular masses near 70 kDa and another around 90 kDa. […] Another family of heat shock proteins, HSP-90, has a molecular mass near 90 kDa (Nollen and Morimoto, J Cell Sci (2002) 115(Pt 14):2809-2816). Thus, O-GlcNAc bearing proteins appear to be responsible for the protection.

isolated rat hearts = assay: isolated heart model of ischemia and reperfusion; details: 5 mM, added 10 minutes prior to ischemia and in reperfusion buffer; 10 min global ischemia, 15 min reperfusion; n=3
Protocol: To determine whether glucosamine treatment was protective in an isolated heart model of ischemia and reperfusion, isolated rat hearts (n=3) were assessed for protection against damage utilizing an ischemia/reperfusion protocol that included 10 minutes of global ischemia followed by 15 minutes of reperfusion with oxygenated buffer. In the experimental group, 5 mM glucosamine was added to the buffer 10 minutes prior to the onset of ischemia and was also included in the reperfusion buffer.

perfused hearts = assay: calcium paradox in perfused hearts (Langendorff); design: species or system rat; details: 5-minute pretreatment of control hearts
Protocol: The effect of short-term hyperglycemia (2-5 days) on the calcium paradox was explored. The protocol (a 30-minute stabilization after hanging the heart on a Langendorff apparatus, a Ca^2+-free buffer for 10 min, a buffer containing 1.25 mM Ca^2+ buffer for 15 min) was initially applied to perfused hearts from control rats. When calcium was removed from the perfusate, the heart gradually ceased beating (FIG. 2A), although no protein loss from the heart was detected (FIG. 3C). […] The decrease in left ventricular […] pressure (LVDP) and an elevation in end diastolic pressure (EDP), as well as protein loss and blanching signaled the transition to a “stone heart” (Zimmerman, Cardiovasc Res (2000) 45(1):119-121) in hearts from all control animals examined.
Azaserine (AZA), the inhibitor of GFAT and HBP flux (Marshall, et al., J Biol Chem (1991) 266(8):4706-4712), negated the effects of hyperglycemia, restoring sensitivity to the paradox in 3 of 7 hearts (FIG. 2B). […] This decreased somewhat the protection seen with hyperglycemia, but made the reversal seen with azaserine more pronounced (FIGS. 2B and 3).
To confirm the involvement of the HBP in the protection due to hyperglycemia, a complementary series of experiments at a final Ca^2+ concentration of 1.25 mM were performed.
An independent mechanism of increasing metabolites in the HBP is to provide the heart with free fatty acids (Hawkins, et al., J Clin Invest (1997) 99(9):2173-2182). This occurs because of the “glucose-sparing” effect, a rapid block on the entry of glucose into the glycolytic pathway because of an inhibition of phosphofructokinase. […] In addition, SKF96365 (also known as 1-[β-[3-(4-methoxyphenyl)propoxy]-4-methoxyphenethyl]-1H-imidazole, HCl; available from Calbiochem, San Diego, Calif.) as an independent means of blocking the channels responsible for CCE was utilized (Putney, Capacitative Calcium Entry (1997) Austin: Landes Biomedical). This too was at least partially effective in 4 of 6 animals (FIG. 4).

O-GlcNAc on proteins = assay: CTD110 immunoblot of O-GlcNAc-containing proteins in isolated heart extracts; details: ten-minute perfusion, 5 mM, isolated hearts
Protocol: FIG. 8 is a photograph of a CTD110 immunoblot performed on extracts from isolated hearts following a 10-minute perfusion with buffer (control) or buffer containing 5 mM glucosamine (GlcNH2). The differences in the O-GlcNAc-containing protein pattern between the control and the GlcNH2 treated hearts are indicated by arrows.
In the experiments above with isolated hearts, glucosamine was protective after only a ten minute pre-incubation. While not wishing to be bound by theory, the mechanism believed to be responsible for the protection is an increase in concentration of an intracellular metabolite of the HBP, which results in an increase in protein-associated O-GlcNAc. […] Increases at ten minutes were 47%. With respect to the second point, experiments were performed in which a monoclonal antibody specific for O-GlcNAc on proteins (CTD110) (Corner, et al, Anal Biochem (2001) 293(2):169-177) was used in an immunoblotting protocol. The specificity of this antibody for O-GlcNAc-containing epitopes is verified in each experiment by the inclusion of 10 mM GlcNAc along with the CTD110 antibody on parallel samples. These samples show no staining (data not shown). CTD110 immunoblots were performed on extracts from isolated hearts following a ten-minute perfusion with buffer or buffer containing 5 mM glucosamine (FIG. 8). […]

## N[C@H]1C(O)O[C@H](CO)[C@@H](O)[C@@H]1O (stereo partly shown) [glucosamine]
UDP-GlcNAc; 30 minute incubation
  increase in UDP-GlcNAc pools: about 75%
UDP-GlcNAc; ten minutes
  increase in UDP-GlcNAc pools: 47%
Isolated rat hearts
  protection from ischemia/reperfusion as assessed by LVDP and EDP: significant protection
Perfused hearts
  function prior to calcium removal: did not alter function
Perfused hearts; final Ca2+ 1.25 mM
  hearts with significant protection following calcium readdition: 7 of 7
Perfused hearts; final Ca2+ 1.25 mM, data not shown
  Protein loss inhibited: 88%
O-GlcNAc on proteins
  O-GlcNAc-containing protein pattern vs buffer: Clear differences
